Literature values, collected in EP0713864A1, “Substituted benzoylguanidines, process for their preparation, their use as medicament of diagnostic agent as well as medicaments containing them” (HOECHST AKTIENGESELLSCHAFT, priority 1994, dated 1996).

System: Kammerflimmern
Settings: isolated rat hearts; Eur. Heart J. 9 (suppl.1): 167 (1988)

Row | SMILES | Unterdrückung eines künstlich ausgelösten Kammerflimmerns
1 | N=C(N)NC(=O)c1nc(Cl)c(N)nc1N [Amilorid] | völlig unterdrückt
2 | CCN(c1nc(N)c(C(=O)NC(=N)N)nc1Cl)C(C)C [Ethylisopropylamilorid] | Noch potenter als Amilorid
